According to ChEMBL document CHEMBL1140289, “Studies on the apoptotic activity of natural and synthetic retinoids: discovery of a new class of synthetic terphenyls that potently support cell growth and inhibit apoptosis in neuronal and HL-60 cells” (2005):

Legend:
HL-60 [1] = test: Effect (1 uM) on HL-60 cell growth cultured for 72 hours in nonsupplemented serum-free medium; format: functional, Homo sapiens
HL-60 [2] = test: Effect (1 uM) on HL-60 cell apoptosis cultured for 72 hours in nonsupplemented serum-free medium; format: functional, Homo sapiens

| SMILES | Activity (HL-60 [1]) | Apoptosis (HL-60 [2]) [%] |
| --- | --- | --- |
| CC1(C)CCC(C)(C)c2cc(/C=C/c3ccc(C(=O)O)cc3)ccc21 | 155 no. of living cells (10E3) /mL | 36 |
| COc1cc(-c2ccccc2-c2ccc(C(=O)O)cc2)cc(OC)c1OC | 220 no. of living cells (10E3) /mL | 22 |
| COc1cc(-c2ccc(-c3ccc(C(=O)O)cc3)cc2)cc(OC)c1OC | 300 no. of living cells (10E3) /mL | 18 |
| CC(=O)OC[C@H](OC(C)=O)[C@@](C)(O)/C=C/C=C(C)/C=C/C1=C(C)CCCC1(C)C | 207 no. of living cells (10E3) /mL | 30 |
| CC(=O)OC[C@H](OC(C)=O)/C(C)=C/C=C/C(C)=C/C=C1/C(C)=CCCC1(C)C | 129 no. of living cells (10E3) /mL | 40 |
| CC1=C(/C=C/C(C)=C/C=C/[C@](C)(O)[C@@H](O)CO)C(C)(C)CCC1 | 149 no. of living cells (10E3) /mL | 37 |
| COc1cc(/C=C/c2ccc(C(=O)O)cc2)cc(OC)c1OC | 166 no. of living cells (10E3) /mL | 36 |
| CC(=O)CC[C@H](O)[C@@](C)(O)/C=C/C=C(C)/C=C/C1=C(C)CCCC1(C)C | 129 no. of living cells (10E3) /mL | 41 |
| CC1=CCCC(C)(C)\C1=C/C=C(C)/C=C/C=C(\C)[C@@H](O)CO | 181 no. of living cells (10E3) /mL | 34 |
| COc1cc(/C=C\c2ccc(C(=O)O)cc2)cc(OC)c1OC | 100 no. of living cells (10E3) /mL | 42 |
| CC1(C)CCC(C)(C)c2cc(/C=C\c3ccc(C(=O)O)cc3)ccc21 | 100 no. of living cells (10E3) /mL | 43 |
| COc1cc(-c2cccc(-c3ccc(C(=O)O)cc3)c2)cc(OC)c1OC | 350 no. of living cells (10E3) /mL | 17 |
